“And” between values parts separate entries of the source, which are not always exact repeats. Equal entries are not always repeated. Where two headings read alike, the source gives them in different places.
How the values were obtained:
[1] = tested on: primary normal human gingival fibroblasts; test: MTT cell viability assay, primary gingival fibroblasts; assay type: cell-based; details: 72 h, read-out: IC50 primary gingival fibroblast
Method: (§1) Human SCC-4, SCC-9, and SCC-25 cells, derived from a human oral tongue SCC (squamous cell carcinoma), were obtained from ATCC (CRL-1624, CRL-1629, and CRL-1628, respectively) and maintained in 1:1 DMEM/F12 (Dulbecco’s modified Eagle’s medium and Ham’s F12 medium; Gibco (Thermo Fisher, Waltham, MA, USA)) supplemented with 10% (v/v) FBS (fetal bovine serum; Invitrogen, Thermo Fisher, Waltham, MA, USA) and 400 ng/mL hydrocortisone (Sigma-Aldrich Corporation, St. Louis, MO, USA). B16-F10 (melanoma; CRL-6475), HCT-116 (colorectal cancer; CCL-247), and HepG2 (liver cancer; HB-8065), in addition to primary normal human gingival fibroblasts obtained from ATCC (PCS-201-018), were maintained in DMEM supplemented with 10% (v/v) of FBS and were used in a maximum of six passages. Cells were grown in a humidified environment containing 5% CO2 at 37 °C. For all biological assays, compounds and shikonin were solubilized in 100% DMSO (all Sigma-Aldrich Corp.) to a final concentration of 10 mM and lapachol in ethanol. The carboplatin control was prepared in water (Fauldcarbo; Libbs Farmacêutica, São Paulo, SP, Brazil) and was used as a standard anticancer compound.
(§2) The viability of OSCC cell lines and primary human fibroblast cells was assessed using the MTT assay as in ref . Briefly, cells were grown in triplicate in 96-well plates (5 × 10^3 cells/well) until confluence. Then, the medium was removed, fresh medium was added, and the cells were returned to the incubator in the presence of different compounds. DMSO at the same concentration was used as a control for 100% cell viability. After 72 h, cells were incubated with 0.5 mg/mL of MTT reagent (3-(4,5-dimethyl-2-thiazolyl)-2,5-diphenyl-2-H-tetrazolium bromide) (Sigma-Aldrich Corporation, Louis, MO, USA) for 3.5 h. Then, the wells containing the cells were washed with PBS heated to 37 °C, the formazan crystals were dissolved in a solvent solution (DMSO/methanol 1:1 v/v), and the absorbance was read at 560 nm using an EPOCH microplate spectrophotometer (BioTek Instruments, Winooski, VT, USA) with the background absorbance at 670 nm subtracted. Control chemotherapeutics (carboplatin and shikonin) were used.
(§3) Data are presented as means ± SD. IC50 values for the MTT assays were obtained by nonlinear regression using the […] 8.4.3.0 program (Intuitive Software for Science, San Diego, CA, USA) from at least three independent experiments. A dose–response curve (inhibitor) vs response using the least-squares method was used to determine the IC50, SD, and R2 of the data. The selectivity index was calculated as SI = IC50 of the compound in normal oral fibroblast cells/IC50 of the same compound for each oral cancer cell line (SCC-4, SCC-9, and SCC-25) and averaged when indicated.

SCC-9 cells (OSCC cells) = test: MTT cell viability assay, SCC-9; assay type: cell-based, human; details: for SI (SCC-9): IC50 normal oral fibroblast / IC50 SCC-9
Method: as §1, §2, §3

[2] = tested on: HCT-116 (colorectal cancer); test: MTT cytotoxicity/selectivity, HCT-116; assay type: cell-based; details: vs normal oral fibroblasts
Method: as §1
as §2, with “DMSO at the same concentration was used as a control for 100% cell viability. After 72 h, cells were incubated with 0.5 mg/mL of MTT reagent (3-(4,5-dimethyl-2-thiazolyl)-2,5-diphenyl-2-H-tetrazolium bromide) (Sigma-Aldrich Corporation, Louis, MO, USA) for 3.5 h.” left out, “Control chemotherapeutics (carboplatin and shikonin) were used.” left out
(§4) Data are presented as means ± SD. […] The selectivity index was calculated as SI = IC50 of the compound in normal oral fibroblast cells/IC50 of the same compound for each oral cancer cell line (SCC-4, SCC-9, and SCC-25) and averaged when indicated.

human erythrocytes = test: Hemolysis assay; assay type: cell-based; details: 500 μM; Triton X-100 positive control
Method: To determine the surfactant power of the substances present in biological membranes, a hemolysis test was carried out with human blood approved by the Research Ethics Committee of the Universidade Federal Fluminense (CAAE: 43134721.4.0000.5626). Erythrocytes were collected for centrifugation at 1500 rpm for 15 min, washed with PBS (phosphate-buffered saline) supplemented with 10 mM glucose, and counted in an automatic cell counter (Thermo Fisher, Waltham, MA, USA). […] In total, 10 μL of PBS was used as a negative control, and 10 μL of PBS with 0.1% Triton x 100 was used as a positive control. Data reading was performed with EPOCH (BioTek Instruments, Winooski, VT, USA) at an absorbance of 540 nm, and statistical data were generated using […] Prism 8.4.3.0 program (Intuitive Software for Science, San Diego, CA, USA).

SCC-25 cells = test: MTT cell viability assay, SCC-25; assay type: cell-based, human; details: for IC50: read-out: IC50 SCC-25
Method: as §1, §2, §3

B16-F10 (melanoma) = test: MTT cytotoxicity/selectivity, B16-F10; assay type: cell-based; details: vs normal oral fibroblasts
Method: as §1
as §2, with “DMSO at the same concentration was used as a control for 100% cell viability. After 72 h, cells were incubated with 0.5 mg/mL of MTT reagent (3-(4,5-dimethyl-2-thiazolyl)-2,5-diphenyl-2-H-tetrazolium bromide) (Sigma-Aldrich Corporation, Louis, MO, USA) for 3.5 h.” left out, “Control chemotherapeutics (carboplatin and shikonin) were used.” left out
as §4

SCC-4 cells = test: MTT cell viability assay, SCC-4; assay type: cell-based, human; details: for IC50: read-out: IC50 SCC-4
Method: as §1, §2, §3

[3] = tested on: OSCC cell lines (SCC-4, SCC-9, and SCC-25); test: Average selectivity index over three OSCC cell lines (MTT); assay type: cell-based, human; details: average of SI for SCC-4, SCC-9 and SCC-25 vs normal oral fibroblasts
Method: as §1, §2, §3

HepG2 (liver cancer) = test: MTT cytotoxicity/selectivity, HepG2; assay type: cell-based; details: vs normal oral fibroblasts
Method: as §1
as §2, with “DMSO at the same concentration was used as a control for 100% cell viability. After 72 h, cells were incubated with 0.5 mg/mL of MTT reagent (3-(4,5-dimethyl-2-thiazolyl)-2,5-diphenyl-2-H-tetrazolium bromide) (Sigma-Aldrich Corporation, Louis, MO, USA) for 3.5 h.” left out, “Control chemotherapeutics (carboplatin and shikonin) were used.” left out
as §4

[4] = tested on: esophageal squamous carcinoma cells; design: method as in PMID 31225674; details: inhibits RSK2 and induces intrinsic apoptosis in esophageal squamous carcinoma cells; cited from earlier work
[5] = Homo sapiens, SCC-9, 72 h, MTT, read-out: IC50 SCC-9 oral cancer

Row | Compound | SI (SCC-9) (SCC-9 cells (OSCC cells)) | average SI [3] | IC50 ([1]; Homo sapiens, Fibroblast, MTT) [µM] | IC50 (SCC-9 cells (OSCC cells); [5]) [µM] | also measured
1 | N.N.O=C([O-])C1(C(=O)[O-])CCC1.[Pt+2] [Carboplatin, carboplatin, reference compound] | 2.6 | 3.5 |  |  | IC50 ([1]; MTT): 128 µM; IC50 (SCC-9 cells (OSCC cells); 72 h, MTT, read-out: IC50 SCC-9 oral cancer): 49.8 µM; selective index (SI) HCT-116 colon cancer [2]: 2.5; % Hemolysis (Mean ± SD) (human erythrocytes): 1.34 ± 0.10%; IC50 (SCC-25 cells; 72 h, MTT): 38.3 µM; selective index (SI) SCC-25 (SCC-25 cells; vs normal oral fibroblasts): 3.3; selective index (SI) B16-F10 melanoma (B16-F10 (melanoma)): 5.5; IC50 (SCC-4 cells; 72 h, MTT): 27.7 µM; selective index (SI) SCC-4 (SCC-4 cells; vs normal oral fibroblasts): 4.6; selective index (SI) HepG2 hepatocellular carcinoma (HepG2 (liver cancer)): 7.1
2 | Cc1ccc(SC2C3=C(OC(C)(C)C2Sc2ccc(C)cc2)C(=O)c2ccccc2C3=O)cc1 (centres unmarked) [7d, 2,2-Dimethyl-3,4-bis(p-tolylthio)-3,4-dihydro-2H-benzo[g]chromene-5,10-dione] | 1.9 |  | 60.1 | 30.9 | 
3 | CC1(C)OC2=C(C(=O)c3ccccc3C2=O)C(Sc2ccc(F)cc2)C1Sc1ccc(F)cc1 (centres unmarked) [7f, 3,4-Bis((4-fluorophenyl)thio)-2,2-dimethyl-3,4-dihydro-2H-benzo[g]chromene-5,10-dione] | 1.1 |  | 40 | 35.3 | 
4 | CC1(C)OC2=C(C(=O)c3ccccc3C2=O)C(Sc2ccc(O)cc2)C1Sc1ccc(O)cc1 (centres unmarked) [7i, 3,4-Bis((4-hydroxyphenyl)thio)-2,2-dimethyl-3,4-dihydro-2H-benzo[g]chromene-5,10-dione] | 1.9 |  | 32.6 | 17.2 | 
5 | Cc1cccc(SC2C3=C(OC(C)(C)C2Sc2cccc(C)c2)C(=O)c2ccccc2C3=O)c1 (centres unmarked) [7c, 2,2-Dimethyl-3,4-bis(m-tolylthio)-3,4-dihydro-2H-benzo[g]chromene-5,10-dione] | 2.7 | 1.8 | 40.8 | 15.3 | IC50 (SCC-25 cells; Homo sapiens, SCC-25, 72 h, MTT): 31.8 µM; IC50 (SCC-4 cells; Homo sapiens, SCC-4, 72 h, MTT): 30.2 µM
6 | Triton X-100 |  |  |  |  | % Hemolysis (Mean ± SD) (human erythrocytes): 100% and 99.6 ± 2.51%
7 | CC1(C)OC2=C(C(=O)c3ccccc3C2=O)C(Sc2ccc(Cl)cc2)C1Sc1ccc(Cl)cc1 (centres unmarked) [7h, 3,4-Bis((4-chlorophenyl)thio)-2,2-dimethyl-3,4-dihydro-2H-benzo[g]chromene-5,10-dione] | 1.3 |  | 43 | 33.3 | 
8 | Cc1ccccc1SC1C2=C(OC(C)(C)C1Sc1ccccc1C)C(=O)c1ccccc1C2=O (centres unmarked) [7b, 2,2-Dimethyl-3,4-bis(o-tolylthio)-3,4-dihydro-2H-benzo[g]chromene-5,10-dione] | 1.5 |  | 50.9 | 34.8 | 
9 | CC(C)=CC[C@@H](O)C1=CC(=O)c2c(O)ccc(O)c2C1=O [Shikonin, shikonin, reference compound] | 1.0 | 2.0 |  |  | IC50 ([1]; Homo sapiens, Fibroblast): 2.2 µM; IC50 (SCC-9 cells (OSCC cells); Homo sapiens, SCC-9, 72 h, read-out: IC50 SCC-9 oral cancer, 72 h, MTT): 2.1 µM; IC50 (SCC-25 cells; Homo sapiens, SCC-25, 72 h): 0.6 µM; IC50 (SCC-4 cells; Homo sapiens, SCC-4, 72 h): 1.6 µM
10 | CC(C)=CCC1=C(O)C(=O)c2ccccc2C1=O [lapachol] |  |  |  |  | IC50 [4]: 2 µM

From paper PMC12444508, “Mechanistic Insights into the Anticancer Action of Novel 2‑Hydroxy-1,4-naphthoquinone Thiol Derivatives” (ACS Omega, 2025)
